Experimental data reported in ChEMBL document CHEMBL1201862, “PubChem BioAssay data set” (2004).
The source made the active and inactive calls.

What was measured:
[1] = P. falciparum Dd2 growth inhibitors, dose response, SYBR Green, dry powder samples (AID 1159566); type: functional, cell-based;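 also: potency for growth inhibition with lower SYBR green DNA signal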
[2] = P. falciparum Dd2 growth inhibitors, dose response, SYBR Green, cherry-picked samples (AID 1159567); type: functional, cell-based
[3] = P. falciparum ATP4 D1247Y mutant growth inhibitors, dose response, NITD609-resistant line, SYBR Green, dry powder (AID 1159571); type: functional, cell-based;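 also: parasites synchronized at ring stage by sorbitol before testing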
[4] = P. falciparum 3D7-ScDHODH growth inhibitors, dose response, SYBR Green, dry powder samples (AID 1159570); type: functional, cell-based;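 also: parasite growth measured after 72 hours of compound exposure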
[5] = biological target: Dual specificity tyrosine-phosphorylation-regulated kinase 1A (Rattus norvegicus, UniProt Q63470); type: biochemical, Homo sapiens
[6] = biological target: T1, Sentrin-specific protease 6 (Homo sapiens, UniProt Q9GZR1); type: functional;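 also: Luminescence-based dose-response confirmatory assay of SENP6 inhibition, following up an ultra-high-throughput screen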
T1 sequence (Q9GZR1 whole entry): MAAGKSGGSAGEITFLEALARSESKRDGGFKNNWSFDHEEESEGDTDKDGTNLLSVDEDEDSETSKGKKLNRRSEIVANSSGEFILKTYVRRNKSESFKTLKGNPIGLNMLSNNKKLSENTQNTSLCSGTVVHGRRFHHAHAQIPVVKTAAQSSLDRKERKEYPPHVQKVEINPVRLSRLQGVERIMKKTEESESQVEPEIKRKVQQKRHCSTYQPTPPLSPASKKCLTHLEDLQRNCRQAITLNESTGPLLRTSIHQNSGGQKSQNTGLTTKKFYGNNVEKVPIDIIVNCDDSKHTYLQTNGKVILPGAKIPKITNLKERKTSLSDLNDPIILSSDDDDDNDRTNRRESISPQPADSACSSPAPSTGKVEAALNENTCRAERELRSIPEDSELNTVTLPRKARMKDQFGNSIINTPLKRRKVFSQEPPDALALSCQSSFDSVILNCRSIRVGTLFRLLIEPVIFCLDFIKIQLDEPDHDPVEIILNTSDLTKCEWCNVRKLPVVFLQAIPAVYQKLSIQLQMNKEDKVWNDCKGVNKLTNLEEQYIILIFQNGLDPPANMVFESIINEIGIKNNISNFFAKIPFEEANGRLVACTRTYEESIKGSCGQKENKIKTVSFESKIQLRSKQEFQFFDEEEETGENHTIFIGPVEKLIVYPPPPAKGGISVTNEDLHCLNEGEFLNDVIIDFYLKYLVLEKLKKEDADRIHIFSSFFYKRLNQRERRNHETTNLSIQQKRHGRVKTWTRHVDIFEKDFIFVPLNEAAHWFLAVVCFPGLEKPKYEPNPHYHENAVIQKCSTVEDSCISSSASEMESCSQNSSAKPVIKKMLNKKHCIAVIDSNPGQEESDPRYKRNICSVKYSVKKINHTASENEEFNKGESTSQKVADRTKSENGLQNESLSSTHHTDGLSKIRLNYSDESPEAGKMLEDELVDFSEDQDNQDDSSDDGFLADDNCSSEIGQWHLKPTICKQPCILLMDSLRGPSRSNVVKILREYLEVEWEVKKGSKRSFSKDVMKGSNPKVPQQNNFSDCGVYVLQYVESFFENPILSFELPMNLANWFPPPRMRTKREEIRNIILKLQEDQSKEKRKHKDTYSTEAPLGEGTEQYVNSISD

[7] = biological target: T2, Sentrin-specific protease 7 (Homo sapiens, UniProt Q9BQF6); type: functional;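 also: Luminescence-based dose-response confirmation of ultra-high-throughput screening hits, measuring inhibition of SENP7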
T2 sequence (Q9BQF6 whole entry): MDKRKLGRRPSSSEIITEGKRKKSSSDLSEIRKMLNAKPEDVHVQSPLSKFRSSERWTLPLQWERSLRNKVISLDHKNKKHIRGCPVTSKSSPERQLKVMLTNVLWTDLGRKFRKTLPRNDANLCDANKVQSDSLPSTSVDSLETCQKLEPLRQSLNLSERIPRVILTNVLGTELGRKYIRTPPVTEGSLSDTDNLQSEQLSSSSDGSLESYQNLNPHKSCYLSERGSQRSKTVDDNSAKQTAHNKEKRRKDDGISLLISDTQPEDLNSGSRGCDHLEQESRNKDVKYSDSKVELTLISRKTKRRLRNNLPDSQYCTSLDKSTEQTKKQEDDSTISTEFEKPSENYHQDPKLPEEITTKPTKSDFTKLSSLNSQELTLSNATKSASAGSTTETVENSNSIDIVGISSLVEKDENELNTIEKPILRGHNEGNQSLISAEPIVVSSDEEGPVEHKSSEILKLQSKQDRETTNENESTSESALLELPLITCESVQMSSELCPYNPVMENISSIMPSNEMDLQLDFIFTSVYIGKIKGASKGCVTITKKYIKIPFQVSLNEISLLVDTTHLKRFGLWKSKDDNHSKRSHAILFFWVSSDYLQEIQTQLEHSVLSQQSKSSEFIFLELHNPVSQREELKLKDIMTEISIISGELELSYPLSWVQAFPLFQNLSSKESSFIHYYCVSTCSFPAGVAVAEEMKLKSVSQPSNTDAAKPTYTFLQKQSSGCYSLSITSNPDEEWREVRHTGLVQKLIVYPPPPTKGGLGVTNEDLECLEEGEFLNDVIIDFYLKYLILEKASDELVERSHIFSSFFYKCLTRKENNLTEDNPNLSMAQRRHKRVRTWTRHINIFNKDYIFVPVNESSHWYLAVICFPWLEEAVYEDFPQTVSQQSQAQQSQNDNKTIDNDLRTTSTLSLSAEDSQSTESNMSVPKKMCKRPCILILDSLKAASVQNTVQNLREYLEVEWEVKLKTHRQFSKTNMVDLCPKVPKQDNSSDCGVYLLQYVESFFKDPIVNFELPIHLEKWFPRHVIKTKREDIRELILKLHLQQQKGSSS

[8] = biological target: T3, Sentrin-specific protease 8 (Homo sapiens, UniProt Q96LD8); type: functional;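 also: luminescence read-out of SENP8 inhibition, dose-response confirmation following an ultra-high-throughput screen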
T3 sequence (Q96LD8 whole entry): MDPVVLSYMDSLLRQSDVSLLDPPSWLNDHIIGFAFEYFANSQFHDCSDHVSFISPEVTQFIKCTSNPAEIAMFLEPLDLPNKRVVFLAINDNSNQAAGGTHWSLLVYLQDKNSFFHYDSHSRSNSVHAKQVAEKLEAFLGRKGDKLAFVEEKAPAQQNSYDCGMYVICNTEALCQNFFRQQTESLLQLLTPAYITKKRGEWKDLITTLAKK

HEK293 [9] = test: NOD1 signaling inhibitors, primary screen, cell-based, luminescence, uHTS (AID 1578); type: functional; conditions: Homo sapiens
HEK293 [10] = test: cells; type: functional, cell-based; conditions: Homo sapiens
HEK293 [11] = test: NOD2 signaling inhibitors in MDP-stimulated cells, cell-based, uHTS, luminescence (AID 2001); type: functional; conditions: Homo sapiens
HEK293 [12] = test: cells; type: functional, cell-based; conditions: Homo sapiens; remark: listed apart in the source
[13] = biological target: T4, DNA repair protein RAD52 homolog (Homo sapiens, UniProt P43351); type: functional, biochemical
T4 sequence (P43351 whole entry): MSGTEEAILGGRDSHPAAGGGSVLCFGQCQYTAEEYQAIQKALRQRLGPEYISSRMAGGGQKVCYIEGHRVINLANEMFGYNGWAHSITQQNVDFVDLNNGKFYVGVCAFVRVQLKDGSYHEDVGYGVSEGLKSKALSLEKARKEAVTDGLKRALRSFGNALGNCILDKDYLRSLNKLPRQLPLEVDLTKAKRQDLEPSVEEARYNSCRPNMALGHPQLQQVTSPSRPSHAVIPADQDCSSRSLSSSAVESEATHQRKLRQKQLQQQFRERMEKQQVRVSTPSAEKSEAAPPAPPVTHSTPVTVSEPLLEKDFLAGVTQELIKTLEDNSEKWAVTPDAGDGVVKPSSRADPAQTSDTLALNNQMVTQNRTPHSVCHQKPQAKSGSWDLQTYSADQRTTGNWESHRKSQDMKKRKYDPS

Paired box protein Pax-8 = Paired box protein Pax-8 (Homo sapiens, UniProt Q06710); test: inhibitors of PAX8-driven TPO luciferase reporter, dose response, RMG-I cells, cherry-pick (AID 687027); type: functional, cell-based;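 also: luciferase reporter driven by Pax8 target thyroperoxidase promoter measured by SteadyGlo luminescence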
[14] = miR-122 activators in hepatoma reporter cells, dose response, cell-based, Huh7 psiCHECK-miR122, Renilla luciferase, cherry-picked (AID 651956); type: functional;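 also: huh7 hepatoma cells stably carrying a psiCHECK-2 miR-122 sensor plasmid; renilla luciferase signal reporting endogenous miR-122 activity after 48 h compound exposure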
[15] = biological target: T5, Histone-lysine N-methyltransferase NSD2 (Homo sapiens, UniProt O96028); type: biochemical
T5 sequence (O96028 whole entry): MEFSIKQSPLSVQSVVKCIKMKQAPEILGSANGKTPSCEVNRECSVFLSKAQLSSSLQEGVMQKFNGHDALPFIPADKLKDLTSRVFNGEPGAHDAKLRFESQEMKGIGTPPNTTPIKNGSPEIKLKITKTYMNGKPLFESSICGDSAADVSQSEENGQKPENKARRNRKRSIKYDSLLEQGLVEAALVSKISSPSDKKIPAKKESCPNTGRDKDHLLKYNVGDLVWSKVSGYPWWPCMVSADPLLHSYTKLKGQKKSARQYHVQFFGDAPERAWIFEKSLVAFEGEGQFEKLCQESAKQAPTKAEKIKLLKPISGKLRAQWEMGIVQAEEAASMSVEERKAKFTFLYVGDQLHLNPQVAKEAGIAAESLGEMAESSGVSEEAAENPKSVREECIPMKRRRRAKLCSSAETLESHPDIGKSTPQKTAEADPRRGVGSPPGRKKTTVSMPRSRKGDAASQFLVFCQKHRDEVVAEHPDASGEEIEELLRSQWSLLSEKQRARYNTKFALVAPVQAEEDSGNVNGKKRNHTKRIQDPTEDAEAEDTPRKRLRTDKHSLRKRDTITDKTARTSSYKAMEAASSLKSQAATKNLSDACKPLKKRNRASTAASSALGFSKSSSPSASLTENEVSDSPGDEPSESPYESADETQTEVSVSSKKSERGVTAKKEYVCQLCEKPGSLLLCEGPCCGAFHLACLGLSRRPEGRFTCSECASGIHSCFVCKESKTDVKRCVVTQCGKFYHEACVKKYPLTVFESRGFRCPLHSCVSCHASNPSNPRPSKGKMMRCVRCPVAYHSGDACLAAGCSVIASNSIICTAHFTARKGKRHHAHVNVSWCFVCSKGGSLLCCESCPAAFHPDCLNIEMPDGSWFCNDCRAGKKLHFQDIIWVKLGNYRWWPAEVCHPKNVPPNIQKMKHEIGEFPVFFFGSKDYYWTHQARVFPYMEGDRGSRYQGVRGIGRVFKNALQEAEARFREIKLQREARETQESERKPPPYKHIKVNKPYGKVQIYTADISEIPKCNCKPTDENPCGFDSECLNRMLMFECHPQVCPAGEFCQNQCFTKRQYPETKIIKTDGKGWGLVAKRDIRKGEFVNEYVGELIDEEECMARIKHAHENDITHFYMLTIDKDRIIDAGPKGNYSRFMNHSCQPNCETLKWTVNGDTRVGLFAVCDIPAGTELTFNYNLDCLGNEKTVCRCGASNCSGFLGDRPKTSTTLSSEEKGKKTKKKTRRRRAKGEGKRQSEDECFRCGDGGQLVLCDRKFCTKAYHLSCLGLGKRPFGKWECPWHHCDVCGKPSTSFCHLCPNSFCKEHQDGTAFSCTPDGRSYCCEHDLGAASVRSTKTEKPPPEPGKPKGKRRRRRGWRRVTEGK

[16] = CEM21 lymphoblast cell cytotoxicity, dose response, cytotoxicity control for viral fusion inhibitor project, CellTiter-Glo luminescence, cherry-picked (AID 652042); type: functional, cell-based;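 also: potency for signal decrease meaning cytotoxicity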
[17] = off-target signal loss in HeLa-CEM21 co-culture – HeLa F-luc CTL cells, cherry-picked, counter-screen for HIV-1 Env fusion inhibitor project, dose response (AID 652040); type: functional, cell-based;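 also: potency for signal decrease marking cytotoxic or nonspecific inhibition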
[18] = ZM109 Env clade C HIV-1 fusion inhibitors, dose response, HeLa effector, CEM target cells, luciferase, cherry-pick (AID 652058); type: functional, cell-based
[19] = inhibitors of HIV Env-driven cell fusion, dose response, cherry-pick (AID 652057); type: functional, cell-based
[20] = inhibitors of clade B AD8 Env fusion, dose response, cell-based, cherry-pick (AID 652062); type: functional;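 also: luciferase signal from cell-cell fusion driven by HIV-1 clade B AD8 Env; potency is for inhibitors of fusion seen as a drop in luminescence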

Sequence of Paired box protein Pax-8 (Q06710 whole entry): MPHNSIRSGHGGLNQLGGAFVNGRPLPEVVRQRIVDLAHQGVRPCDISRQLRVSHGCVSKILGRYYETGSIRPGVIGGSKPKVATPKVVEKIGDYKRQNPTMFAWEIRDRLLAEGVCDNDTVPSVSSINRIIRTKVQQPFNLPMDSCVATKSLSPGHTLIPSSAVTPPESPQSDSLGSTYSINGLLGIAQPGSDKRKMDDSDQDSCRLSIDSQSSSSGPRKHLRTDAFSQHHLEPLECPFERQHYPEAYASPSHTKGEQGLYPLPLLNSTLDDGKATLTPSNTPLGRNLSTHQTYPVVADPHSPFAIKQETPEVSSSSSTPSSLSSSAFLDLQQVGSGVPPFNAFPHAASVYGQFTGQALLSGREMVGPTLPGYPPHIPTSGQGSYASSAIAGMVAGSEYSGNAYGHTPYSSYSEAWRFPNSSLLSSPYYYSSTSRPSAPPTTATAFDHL

Compound: C[C@@H]1CN([C@@H](C)CO)C(=O)c2cccc(NC(=O)Nc3ccc4c(c3)OCO4)c2O[C@@H]1CN(C)C(=O)Nc1ccc2c(c1)OCO2
- AC50 [1]: 0.954 µM (active)
- AC50 [2]: 1.2 µM (active)
- AC50 [3]: 0.865 µM (active)
- AC50 [4]: 1.52 µM (active)

Compound: Oc1ccnc2ccc(Cl)cc12
- AC50 [5]: 13.6 µM (active)

Compound: CC(C)(C)c1ccc(C(=O)NCCOc2ccccc2)cc1
- IC50 [6]: > 100 µM (inactive)
- IC50 [7]: 5.62 µM (active)
- IC50 [8]: > 100 µM (inactive)

Compound: CCOc1ccc(C(=O)/C=C/c2cc(OC)c(OC)c(OC)c2)cc1
- EC50 (HEK293 [9]): 11.5 µM (active)
- IC50 (HEK293 [10]): 5.97 µM (active)
- IC50 (HEK293 [11]): 5.02 µM (active)
- IC50 (HEK293 [12]): 14.7 µM (active)

Compound: Cc1c(NS(=O)(=O)c2ccc3c(c2)OCCO3)cccc1-c1nc2cccnc2s1
- EC50 (HEK293 [9]): 4.14 µM (active)
- IC50 (HEK293 [10]): 5.27 µM (active)
- IC50 (HEK293 [11]): 4.02 µM (active)
- IC50 (HEK293 [12]): 10.9 µM (active)

Compound: Cc1nc(NC(=N)N)nc2ccccc12
- AC50 [13]: 13.7 µM (active)

Compound: C[C@@H]1CN([C@@H](C)CO)C(=O)Cc2cc(NS(=O)(=O)c3ccc(F)cc3)ccc2O[C@H]1CN(C)Cc1ccc(Oc2ccccc2)cc1
- AC50 (Paired box protein Pax-8): 5.32 µM (active)
- AC50 [14]: 1.96 µM (active)

Compound: CN1CCN(c2ccc(N)cc2Cl)CC1
- AC50 [13]: 0.931 µM (active)
- AC50 [15]: > 20 µM (inactive)

Compound: C[C@H](CO)N1C[C@H](C)[C@H](CN(C)C(=O)N[C@H](C)c2ccccc2)OCc2ccccc2-c2c(n(C)c3ccccc23)C1=O
- AC50 [16]: 64.6 µM (active)
- AC50 [17]: 1.53 µM (active)
- AC50 [18]: 1.62 µM (active)
- AC50 [19]: 0.975 µM (active)
- AC50 [20]: 1.07 µM (active)

Compound: CCC(=O)Nc1ccc2c(c1)OC[C@H](C)N(CC1CCCCC1)C[C@H](C)[C@@H](OC)CN(C)C2=O
- AC50 [16]: 55.6 µM (active)
- AC50 [18]: 2.21 µM (active)
- AC50 [19]: 2.93 µM (active)
- AC50 [20]: 4.48 µM (active)
